Tested on: Lu99 KRAS G12C lung carcinoma xenograft
Assay: Anti-tumor efficacy in Lu99 KRAS G12C lung carcinoma xenografts
Format: in vivo, mice
Conditions: Lu99, oral, Compound A 100 mg/kg once daily, alone or in combination
Method: It carries the allele NM_033360.4(KRAS):c.34G>T and consequently a heterozygous KRAS Gly12Cys mutation. Lu99 cells were grown in sterile conditions in a 37° C. incubator with 5% CO2 for two weeks. The cells were kept in RPMI media supplemented with 10% FCS, 2 mM L-Glutamin, 1 mM sodium pyruvate and 10 mM HEPES, and split 1:6 every 3 days. […] On the day of injection, cells were harvested after 8 passages in total, including passages from the vendor. Cells were resuspended in 50% HBSS and 50% Matrigel at a final concentration of 10·10^6 cells/ml.
Experiments were performed with female nude mice (Charles River Laboratories, Crl:NU(NCr)-Foxn1nu Homozygous). […] Animals were allowed to accommodate at least for 7 days.
Mice were injected subcutaneously with Lu99 human NSCLC cells to induce xenograft tumors and randomized into treatment groups when the mean tumor volume reached ˜250 mm^3.
The control group received a solution of 0.1% Tween 80 (Fisher Scientific AG #BP338-500) and 0.5% Methylcellulose in water.
The treatment period was between 9 to 28 days, depending on the groups.
Tumor growth was monitored regularly post cell inoculation and animals were randomized into treatment groups (n=6) when TV reached appropriate volume. During the treatment period, xenograft tumor sizes were measured about 2-3 times per week manually with calipers, and the TV was estimated in mm^3 using the formula: Length×Width^2/2.
Mice were injected subcutaneously with Lu99 human NSCLC cells to induce xenograft tumors and randomized into treatment groups when the mean tumor volume reached ˜200 mm^3. […] The treatment period was between 14 to 35 days, depending on the groups. Animals treated with vehicle were terminated at day 14. […] Tumor volumes were recorded and are represented as mean±SEM (standard error of the mean) for each group. Anti-tumor response of treatment groups vs. vehicle group was calculated at day 14 as % T/C or % regression.

Compound: C[C@@H]1OCC2(CCN(c3cnc(Sc4ccnc(N)c4Cl)c(N)n3)CC2)[C@@H]1N [TNO155, (3S,4S)-8-(6-amino-5-((2-amino-3-chloropyridin-4-yl)thio)pyrazin-2-yl)-3-methyl-2-oxa-8-azaspiro[4.5]decan-4-amine]
- anti-tumor response (Example 7) (TNO155 10 mg/kg twice daily continuous): slight tumor growth delay
- anti-tumor response (Example 6) (TNO155 10 mg/kg twice daily, up to 28 days): moderate anti-tumor response

Reference: patent US20240082218A1, “PHARMACEUTICAL COMBINATIONS COMPRISING A KRAS G12C INHIBITOR AND USES OF A KRAS G12C INHIBITOR FOR THE TREATMENT OF CANCERS” (priority 2020, published 2024)
